Test results reported in the NIST ThermoML archive (doi:10.1021/je900444h).

Assay: mn = molality of the nth substance listed, in mol/kg
Conditions: 101 kPa, Liquid; for mass density: Vibrating tube method; for viscosity: Capillary tube (Ostwald / Ubbelohde) method

CNC(=O)NC [1,3-dimethylurea] + O
Conditions	mass density, 283.15 K [kg/m3]	mass density, 288.15 K [kg/m3]	mass density, 293.15 K [kg/m3]	mass density, 298.15 K [kg/m3]	viscosity, 288.15 K [mPa·s]	viscosity, 293.15 K [mPa·s]	viscosity, 298.15 K [mPa·s]
m1 = 0.0033	999.7	999.1	998.2	997.1	1.173	1.035	0.9187
m1 = 0.0331	1000	999.4	998.5	997.3	1.187	1.045	0.929
m1 = 0.0995	1000.6	1000	999	997.9	1.212	1.066	0.9456
m1 = 0.1669	1001.2	1000.5	999.6	998.4	1.232	1.081	0.9603
m1 = 0.2354	1001.8	1001.1	1000.2	999	1.243	1.094	0.9716
m1 = 0.3039	1002.4	1001.7	1000.8	999.5	1.255	1.104	0.9789
m1 = 0.3387	1002.7	1002	1001	999.8	1.27	1.117	0.9944
m1 = 0.4997	1004.2	1003.4	1002.4	1001.1	–	–	–
m1 = 0.7491	1006.5	1005.6	1004.5	1003.2	1.402	1.228	1.084
m1 = 1.001	1008.7	1007.8	1006.6	1005.2	–	–	–
m1 = 1.08	1009.4	1008.5	1007.3	1005.8	–	–	–
m1 = 1.5	1013.2	1012.1	1010.7	1009.2	–	–	–
m1 = 1.923	1016.8	1015.5	1014	1012.3	1.831	1.581	1.379
m1 = 2.885	1024.6	1023	1021.2	1019.2	2.225	1.902	1.649
m1 = 4.005	1032.6	1030.7	1028.5	1026.3	2.746	2.325	1.998
m1 = 5.304	1040.7	1038.4	1035.9	1033.3	3.342	2.805	2.382
m1 = 6.862	1048.7	1046	1043.3	1040.4	4.179	3.464	2.921
m1 = 8.726	1056.3	1053.3	1050.2	1047	5.242	4.27	3.535
m1 = 11.02	1063.4	1060.1	1056.8	1053.4	6.533	5.262	4.342
m1 = 15.65	1072.5	1068.9	1065.3	1061.6	9.3	7.377	5.955
m1 = 23.15	1079.6	1075.7	1071.9	–	14.49	11.22	8.8
